Data on five compounds can be found in patent US20220273768A1 (The George Washington University, priority 2019, published 2022).

Series [1] relates to hypoglossal motoneurons (HGN). Put plainly: Excitatory post-synaptic currents in HGNs evoked by photoexcitation of ChR2 fibers from LepR^b+ neurons. It counts as cell-based, mouse.
In series [2] the test system is hypoglossal motoneurons (HGN). Description: HGN firing per fictive inspiratory burst in bursting slice preparation. It is filed as cell-based, mouse. The note with it: DAMGO 500 nM; then leptin 200 nM with DAMGO; prior to DAMGO 3-5.
Series [3] concerns hypoglossal neurons (HGNs). Description: Excitatory post-synaptic currents (EPSCs) recorded in vitro from HGNs. It is filed as cell-based, mouse. The note with it: for spontaneous excitatory post-synaptic currents (EPSCs) in HGNs: FIG. 7, DAMGO then leptin added to DAMGO; for EPSC frequency in HGNs: FIG. 16, n=7, DAMGO focally applied, then 200 nM leptin co-infusion.
Series [4] has as its system DIO C57BL/6J mice.
Series [5] concerns lean C57BL/6J mice. Put plainly: Blood pressure by telemetry during SC leptin infusion. It counts as in vivo, mouse. The protocol: Blood pressure was measured by telemetry (DSI) implanted in the left femoral artery of freely behaving lean C57BL/6J mice at baseline and during leptin infusion (120 μg/day for 3 days via a SC pump) before and after carotid body (CB) denervation or sham surgery.

Series [6] relates to LepR^b+ neurons in the dorsomedial hypothalamus (DMH). It counts as cell-based, mouse.
A short description of series [7]: Plasma leptin levels after IN and IP leptin. Conditions: IN leptin, 1, 3 and 6 hours vs baseline, n=4. It is filed as in vivo, mouse. Here is the method: FIG. 18 depicts a graph showing plasma leptin levels measured 1, 3, and 6 hours after IN and IP leptin administrations, as compared to baseline, n=4, for each treatment. *p<0.05.
Series [8] deals with DIO C57BL/6J mice. Put plainly: Sleep study (plethysmography) in diet-induced obese mice, mouse model of OSA. It is filed as in vivo. The note with it: IN leptin 0.4 mg/kg single dose.
Series [9] has as its system lean C57BL/6J mice. Description: Barometric plethysmography during subcutaneous leptin infusion in lean mice. It counts as in vivo, mouse. The note with it: SC osmotic pump leptin 0.2 mg/kg/hour. An excerpt: Leptin increases minute ventilation, stimulates control of breathing and reverses UAO during sleep in leptin deficient ob/ob mice as shown in Pho et al., Journal of Applied Physiology 120, 78-86 (2016); Yao et al., Sleep 39, 1097-106 (2016); and O'Donnell et al., American Journal of Respiratory & Critical Care Medicine 159, 1477-1484 (1999), the disclosures of which are incorporated herein in their entirety. As such, it was proposed that high doses of leptin also stimulate ventilation and control of breathing in lean C57BL/6J mice. […] In six mice, a subcutaneous osmotic pump (DURECT, Cupertino, Calif., USA) filled with saline was implanted and baseline minute ventilation (VE) and the hypoxic ventilatory response (HVR) were measured by exposing mice to room air and 10% O2. […] VE normalized to body weight and the hypoxic ventilatory response (HVR) was calculated as the ratio of [VE (10% O2)−VE (20.9% O2) to the change in FiO2 (ΔFiO2=10.9% between normoxia and hypoxia) and reported as ΔVE/ΔFiO2. Subsequently, a subcutaneous osmotic pump for leptin infusion (0.2 mg/kg/hour) was implanted and the HVR was measured. […]

The subject of series [10] is STAT3 phosphorylation (pSTAT3) via LepR^b. Put plainly: Leptin signaling by STAT3 phosphorylation (pSTAT3) immunofluorescent staining of brain sections. It is filed as in vivo, mouse. Conditions: DIO mice.
Series [11] in a line: Leptin detection in brain tissue by ELISA after IN administration. The note with it: IN leptin 0.8 mg/kg in 1% BSA, 20 minutes, vs IN vehicle. It is filed as in vivo, mouse. The protocol: To determine the effect of intranasal (IN) leptin in the brain, leptin detection in brain tissue by ELISA was assessed after IN administration. In brief, male lean C57BL/6J mice (30 g of weight), were treated with IN leptin (24 μl) at 0.8 mg/kg in 1% BSA or 1% BSA and sacrificed 20 minutes later. Brains were extracted, then the olfactory bulbs, hypothalami and medullas were isolated, quick frozen in liquid nitrogen and stored at −80° C. For leptin level measurements, brain tissue was homogenized in 160 mM KCL, 25 mM HEPES, 0.2% Triton X-100 and protease inhibitors. Total protein concentrations were determined using a BioRad DC Protein kit and ELISA for leptin was performed with a Millipore kit.

Setting [12] is: SC leptin 120 μg/day for 3 days.

Read-outs that look alike come from different tables or passages of the source.

With `N[C@H](CCCP(=O)(O)O)C(=O)O` [APV, (2R)-amino-5-phosphonovaleric acid], the “photoexcitation-evoked excitatory post-synaptic currents in HGNs” value in series [1] is listed as “blunted, but not blocked”.
Take `N#Cc1cc2c(cc1[N+](=O)[O-])=NC(=O)C(=O)N=2` [CNQX, 6-cyano-7-nitroquinoxaline-2,3-dione]: the “photoexcitation-evoked excitatory post-synaptic currents in HGNs” value in series [1] (50 μM APV and 50 μM CNQX applied together) is given as “blunted, but not blocked”.
On to `C[C@@H](NC(=O)[C@@H](N)Cc1ccc(O)cc1)C(=O)NCC(=O)N(C)[C@@H](Cc1ccccc1)C(=O)NCCO` [DAMGO, [D-Ala^2, N-MePhe^4, Gly-ol]-enkephalin, reference compound], for which the “action potentials in HGNs associated with each burst” value in series [2] was 2-3 action potentials. Moreover, in series [3], the “spontaneous excitatory post-synaptic currents (EPSCs) in HGNs” value is on record as “rapidly depressed” and the “EPSC frequency in HGNs” value is listed as “significantly reduced”.
For the compound `CN1CC[C@]23c4c5ccc(O)c4O[C@H]2[C@@H](O)C=C[C@H]3[C@H]1C5` [morphine, reference compound], in the series with DIO C57BL/6J mice [4] (FIG. 3B experiment, DIO mice n=4, morphine 10 mg/kg), the “IFL prevalence (frequency of upper airway obstruction)” value is reported as 39.6±9.3 % of all breaths. Besides, the “maximal inspiratory flow (Vimax) during IFL” value in the series on DIO C57BL/6J mice [4] (FIG. 3C, DIO mice n=4, morphine 10 mg/kg) is reported as “decreasing”. Further, the “minute ventilation during IFL (VE IFL)” value in the series with DIO C57BL/6J mice [4] (FIG. 3D, DIO mice n=4, morphine 10 mg/kg) was “decreasing”. In the series with DIO C57BL/6J mice [4] (FIG. 3E experiment, morphine 10 mg/kg), the “respiratory rate during NFL breathing” value is on record as “decreased”. For the same compound, the “non-flow limited breathing (NFL), respiratory depression” value with DIO C57BL/6J mice [4] (FIG. 3E, DIO mice n=4, morphine 10 mg/kg) is listed as “suppressed”. Also, the “respiratory depression (minute ventilation, VE)” value with DIO C57BL/6J mice [4] (IP morphine 80 mg/kg, DIO mice) is listed as “induced respiratory depression”. Besides, the “number of apneic events during NREM sleep” value in the series on DIO C57BL/6J mice [4] (NREM sleep, n=9, morphine 10 mg/kg, baseline 13.9±3.7) was determined as 91.5±20.0. Besides, the “frequency of upper airway obstruction (IFL breaths), NREM sleep” value with DIO C57BL/6J mice [4] (morphine 10 mg/kg, baseline 11.9±5.5%) is reported as 56.8±4.8 % of all breaths. In addition, the “minute ventilation during obstructed (IFL) breathing, NREM sleep” value in the series with DIO C57BL/6J mice [4] (n=5, morphine 10 mg/kg) is “significantly decreased”. For the same compound, the “maximal inspiratory flow (Vimax) during obstructed (IFL) breathing, NREM sleep” value in the series with DIO C57BL/6J mice [4] (n=5, morphine 10 mg/kg, baseline 3.4±0.4) was determined as 2.3 ± 0.5 mL/min. Besides, in the series on DIO C57BL/6J mice [4] (n=9, morphine 10 mg/kg, baseline 1.2±0.1), the “minute ventilation (VE), non-flow limited respiration, NREM sleep” value came out at 0.7 ± 0.1 mL/min/g. Further, in the series on DIO C57BL/6J mice [4] (sub-lethal IP morphine 80 mg/kg, DIO mice), the “inspiratory flow limitation (IFL)” value was “induced severe inspiratory flow limitation”.
Take leptin: in the series with lean C57BL/6J mice [5] (setting [12]), the “increase in blood pressure at night” value is on record as 16 mm Hg and the “increase in blood pressure during the day (9 am-9 pm, light phase)” value is given as 13 mm Hg. Also, the “leptin-mediated increase in blood pressure after carotid body (CB) denervation” value in the series with lean C57BL/6J mice [5] (SC leptin 120 μg/day, not abolished by sham surgery) was “completely abolished”. Further, the “effect on LepR^b+ neurons (firing)” value in series [6] is “excited”. Moreover, in series [2], the “action potentials in HGNs associated with each burst” value is recorded as 3-4 action potentials. In the series on DIO C57BL/6J mice [4] (mouse, in vivo), the “IFL prevalence (frequency of upper airway obstruction)” value was “decreased”; the “apnea-hypopnea index (AHI)” value is given as “dramatically reduced”; the “frequency of upper airway obstruction (IFL breaths), NREM sleep” value was “decreased”; the “inspiratory flow limitation (IFL)” value is “markedly improved”. Moreover, in the series with DIO C57BL/6J mice [4] (mouse, in vivo), the “leptin effects on apneas, VE, IFL frequency, VImax and VE during IFL” value is recorded as “no longer significant”; the “maximal inspiratory flow (Vimax) during IFL” value is recorded as “increases”; the “maximal inspiratory flow (Vimax) during obstructed (IFL) breathing, NREM sleep” value is recorded as “reversals of morphine-induced reductions”; the “minute ventilation (VE), non-flow limited respiration, NREM sleep” value is reported as “increase”. Also, in the series with DIO C57BL/6J mice [4] (mouse, in vivo), the “minute ventilation during IFL (VE IFL)” value is given as “increases”; the “minute ventilation during obstructed (IFL) breathing, NREM sleep” value is given as “reversals of morphine-induced reductions”; the “non-flow limited breathing (NFL), respiratory depression” value is “prevented”; the “number of apneic events during NREM sleep” value was “decreased”. For the same compound, in the series on DIO C57BL/6J mice [4] (mouse, in vivo), the “respiratory depression (minute ventilation, VE)” value is recorded as “prevented”; the respiratory rate result was “increasing”; the “respiratory rate during NFL breathing” value is listed as “did not change”; the “tidal volume (VT)” value is “increasing”. For the same compound, the “tidal volume during NFL breathing” value in the series on DIO C57BL/6J mice [4] (mouse, in vivo) is listed as 0.44±0.03. Besides, the plasma leptin levels result in [7] is reported as “did not increase”. In the series with DIO C57BL/6J mice [8], the “ODI (number of oxyhemoglobin desaturations ≥4%/hour)” value is given as “dramatic decrease”, the “maximal inspiratory flow (Vimax) during flow limited obstructed breathing” value is recorded as “increased”, the “minute ventilation (VE) during flow limited obstructed breathing” value is on record as “increased” and the non-flow limited breathing result was “increased”. Moreover, the “hypoxic ventilatory response (HVR, ΔVE/ΔFiO2)” value with lean C57BL/6J mice [9] (10% O2 vs room air, saline pump 0.23) came to 0.31 ml/minutes/grams/ΔFiO2. Moreover, in the series on lean C57BL/6J mice [9] (wakefulness, saline pump 1.1), the “minute ventilation (VE)” value is 1.5 ml/minutes/grams. Further, in series [3], the “spontaneous excitatory post-synaptic currents (EPSCs) in HGNs” value is recorded as “successfully reversed” and the “EPSC frequency in HGNs” value is recorded as “restored”. In addition, the “signaling (STAT3 phosphorylation) in dorsal medulla, RVLM, CC, DMV, NA, XII” value in [10] (IN leptin single dose, one hour) is on record as “increased”. Besides, the “number of pSTAT3-positive cells in the hypothalamus and medulla” value in series [10] (IN leptin vs IP leptin and vehicle groups) is listed as “highest”. In [10] (IP leptin single dose, one hour), the “signaling (STAT3 phosphorylation) in dorsal medulla or RVLM” value is recorded as “no effect”. In series [11], the “leptin levels in the hypothalamus” value was “strong increase”, the “leptin levels in the medulla” value is “significantly increased” and the “leptin levels in the olfactory bulb” value was “significantly increased”.
